US12558339B2, “Composition comprising (7S)-(+)-cyclopentyl carbarmic acid, 8,8-dimethyl-2-oxo-6,7-dihydro-2H,8H-pyrano[3,2-g]chromen-7-yl-ester as active ingredient for prevention, alleviation, or treatment of eye disease” (INSPHARMTECH INC., priority 2021, dated 2026)

Tests used:
[1] = system: ICR mice; assay: Acute toxicity, oral, fatality rate at 24 hours; type: in vivo; details: 2.0 g/kg, n=5
Protocol: This experiment was conducted to investigate the acute (within 24 hours) toxicity of the compound of the present disclosure and determine its fatality rate when consumed in an excess amount in a short period of time. ICR mice were assigned to a control group (n=5) and a test group (n=5). Nothing was administered to the control group and the compound of Example (1) was orally administered to the test group at a concentration of 2.0 g/kg (about 50 times the amount used in general animal experiments).

[2] = system: choroidal neovascularization (CNV)-induced rabbit model; assay: Laser-induced choroidal neovascularization (CNV) rabbit model, fluorescein angiography, retinal fluorescence intensity; type: in vivo, Chinchilla rabbit; details: for Fluorescence intensity (% of control group): rabbit CNV, instillation 300 μg/eye 1/day, day 7 (G6, G7)
From the text: After obtaining 50 male Chinchilla rabbits weighing about 2.5-3.0 kg from DREAMBIO, their health status was checked during a 7-day acclimatization period, and healthy animals were used in the test.
After the acclimatization period, 42 healthy rabbits were selected and a mydriatic agent (MIDRIACIL™ 1% eye drop) was instilled into the right eye. After anesthetizing the animals, laser (ELITE, LUMENIS, USA) was irradiated under the condition of 532 nm, power 150 mW and duration 0.1 sec, and 6 spots were made in about 6 o'clock direction around the optic nerve.
After dividing the test animals into a total of 7 groups, G1 to G7, administration of the test substance was started on the day of the CNV induction using laser with the concentrations described in Table 2. In Table 2, EYLEA™ (Aflibercept) was used as a positive control substance. For intravitreal injection, 40 μL of the positive control substance (EYLEA™) was injected intravitreally into the right eye of the animal in the anesthetized state using a syringe equipped with a 31-gauge needle on the day of the CNV induction. For instillation, after the animal was taken out of the cage and corrected naturally by an assistant, 200 μL of the test substance was instilled into the center of the cornea of the right eye by using a pipette. In the case of “a)”, the instillation was divided into 4 times and each administration was spaced by 5 minutes.
Before the administration of the test substance (0) and on 7, 14, 28, 42 and 56 days after the administration, a mydriatic agent (MIDRIACIL™ 1% eye drop) was instilled into the right of the animal. Then, after anesthetizing the animal and injecting about 1 mL of a 2% fluorescein sodium salt solution via the ear vein, images were taken within about 2 minutes using a fundus camera (TRC-50IX, Topcon, Japan).
Retinal CNV and drug efficacy were confirmed using the retinal fluorescein fundus images. The fluorescein intensity of the irradiation area was analyzed using the ImageJ software (NIH, Bethesda, MD).
For the results of this test, the significance between the test groups was tested using parametric one-way ANOVA assuming the normality of the data. When significance was recognized, a post hoc test was performed using Dunnett's multiple comparison test. Statistical analysis was performed using PRISM 7.04 (GraphPad Software Inc., San Diego, CA, USA), and p<0.05 was considered statically significant.
The test substance of the example or the comparative example was dropped onto the eye of a rabbit wherein choroidal neovascularization (CNV) was induced by laser irradiation, for 7 days, 300 μg per each administration. On day 7 after the start of the test substance administration, the eye was imaged with a fundus camera to compare the effect of the test substance on intraocular vascular leakage and the fluorescence intensity of the retina was analyzed. […] Table 3 compares the relative fluorescence intensity (% of control group) of the irradiation area determined by analyzing the retinal fluorescein angiographic images of the control group (G1), the test group (G6) and the comparison group (G7).
For a rabbit wherein choroidal neovascularization (CNV) was induced by laser irradiation, EYLEA™ was intravitreally injected as a positive control, the eye drop of the example was administered by dropping onto the eye or EYLEA™ and the eye drop of the example were co-administered. […]

[3] = system: C57BL/6J mice; assay: Organ and tissue toxicity (blood GPT, BUN; liver and kidney histology); type: in vivo
Protocol: In order to investigate the effect on the organs (tissues) of C57BL/6J mice, blood was taken from the animals of a test group to which the compound of Example (1) was administered and a control group to which only a solvent was administered 8 weeks after the administration, and blood levels of GPT (glutamate-pyruvate transferase) and BUN (blood urea nitrogen) were measured using SELECT™ E (Vital Scientific NV, Netherlands). […] In addition, the liver and kidney were taken from each animal and subjected to histological observation under an optical microscope through a conventional tissue section preparation process.

[4] = system: vascular endothelial growth factor (VEGF) in human retinal pigment epithelial cells (ARPE-19 cells); assay: Western blotting of VEGF level in ARPE-19 cells; type: cell-based; details: FIG. 1B
Protocol: (§1) ARPE-19 cells (RID: CVCL 0145) and L-Wnt3a cells (RID: CVCL 0635) were acquired from American Type Culture Collection (ATCC) and cultured in a DMEM medium supplemented with 10% fetal bovine serum (FBS), 120 μg/mL penicillin and 200 μg/mL streptomycin. Human umbilical vein endothelial cells (HUVECs, RID: CVCL 2959) were purchased from CEFO (Cell Engineering for Origin) and cultured using an optimized medium (CEFOgro-HUVEC). Wnt3a-CM (Wnt3a-conditioned medium) was prepared using L-Wnt3a cells that secrete the Wnt-3a protein into the medium. First, the cells were cultured for 4 days and the medium was recovered and replaced with a fresh medium. After culturing for 3 days, the medium was recovered. The two media were combined and used after passing through a 0.22-μm filter. All the cells were cultured in a cell incubator under the condition of 37° C. and 5% CO2.
Whole cell proteins were obtained using a RIPA buffer. After treating the cells with an appropriate amount of a RIPA buffer supplemented with 1× protease inhibitor, the cells were reacted on ice while vortexing once every 10 minutes. After centrifuging at 13,000 rpm and at 4° C. for 10 minutes and quantifying the obtained supernatant by BRADFORD™ assay, […] of proteins were separated according to molecular weight through electrophoresis. […]

[5] = system: human endothelial cells (HUVECs); assay: Cell viability test (CELLTITER-GLO luminescent assay) in HUVECs; type: cell-based; details: various concentrations, 48 hours, FIG. 1A
Protocol: as §1, with “The two media were combined and used after passing through a 0.22-μm filter. All the cells were cultured in a cell incubator under the condition of 37° C. and 5% CO2.” left out
HUVECs were inoculated into a 96-well plate with a transparent black bottom at 5,000 cells per well, incubated overnight, and then treated with a test substances (compound of Example (1) (CGK012) or decursin of Comparative Example (1)) at various concentrations together with a medium (total volume per well: 100 μL). After 48 hours, cell viability was measured using a CELLTITER-GLO® luminescent cell viability assay kit (Promega, G7572) according to the manufacturer's instructions. […] After mixing in an orbital shaker for 2 minutes for cell lysis, stabilization was induced at room temperature for 10 minutes, and then luminescence was measured. […]

[6] = G5: CGK012 administered alone, FIG. 6B, 6C

Compound	fatality rate 24 hours after the administration [1]	difference of retinal fluorescence intensity from the positive control EYLEA administration group (G2) [2, 6]	level of retinal fluorescence intensity as compared to the induced control group (G1) [2, 6]	relative fluorescence intensity (% of control group) ([2]; G5: CGK012 instillation 300 μg/eye 2/day, Day 7)	relative fluorescence intensity (% of control group) ([2]; G5: CGK012 instillation 300 μg/eye 2/day, Day 14)	relative fluorescence intensity (% of control group) ([2]; G5: CGK012 instillation 300 μg/eye 2/day, Day 28)	relative fluorescence intensity (% of control group) ([2]; G5: CGK012 instillation 300 μg/eye 2/day, Day 42)	relative fluorescence intensity (% of control group) ([2]; G5: CGK012 instillation 300 μg/eye 2/day, Day 56)	duration of the effect of inhibiting choroidal neovascularization ([2]; G5: single administration of CGK012 (eye drop, without EYLEA)) [weeks]	Fluorescence intensity (% of control group) [2]	blood level of BUN (blood urea nitrogen) vs control group ([3]; 8 weeks after the administration, kidney toxicity)	blood level of GPT (glutamate-pyruvate transferase) vs control group ([3]; 8 weeks after the administration, liver toxicity)	histological observation of liver and kidney ([3]; optical microscope)	level of VEGF in ARPE-19 cells [4]	cell viability of human endothelial cells (HUVECs) [5]	relative fluorescence intensity (% of control group) ([2]; G2: EYLEA intravitreal 1600 μg/eye 1/3 weeks, Day 7)	relative fluorescence intensity (% of control group) ([2]; G2: EYLEA intravitreal 1600 μg/eye 1/3 weeks, Day 14)	relative fluorescence intensity (% of control group) ([2]; G2: EYLEA intravitreal 1600 μg/eye 1/3 weeks, Day 28)	relative fluorescence intensity (% of control group) ([2]; G2: EYLEA intravitreal 1600 μg/eye 1/3 weeks, Day 42)	relative fluorescence intensity (% of control group) ([2]; G2: EYLEA intravitreal 1600 μg/eye 1/3 weeks, Day 56)
CC1(C)Oc2cc3oc(=O)ccc3cc2C[C@@H]1OC(=O)NC1CCCC1 [CGK012, (7S)-(+)-cyclopentylcarbarmic acid 8,8-dimethyl-2-oxo-6,7-dihydro-2H,8H-pyrano[3,2-g]chromen-7-yl-ester]	all the animals of the control group and the test group survived	no statistically significant difference	significantly low	80.877 ± 8.905 % of control group	79.116 ± 7.972 % of control group	79.152 ± 6.642 % of control group	79.137 ± 6.355 % of control group	81.041 ± 10.391 % of control group	8	75.52 ± 3.93 % of control group	no significant difference was observed	no significant difference was observed	No unusual abnormality was observed	remarkably decreased VEGF	significantly inhibited the survival of the HUVECs at high concentrations					
CC(C)=CC(=O)O[C@H]1Cc2cc3ccc(=O)oc3cc2OC1(C)C [decursin, reference compound]										95.66 ± 10.80 % of control group				did not show significant effect on the level of VEGF	did not significantly induce the apoptosis of the HUVECs even at high concentrations					
Aflibercept [EYLEA™, reference compound]																78.474 ± 8.452 % of control group	70.022 ± 7.008 % of control group	69.348 ± 5.013 % of control group	74.154 ± 9.129 % of control group	84.087 ± 9.079 % of control group
